Source: patent publication US20250144067A1, “PERSONALIZED STARVATION THERAPY FOR CANCER” (Faeth Therapeutics, Inc., priority 2021, published 2025)
Where a name gives a salt, the structure may show the parent alone.

Assays:
[1] = tested on: NCI-H292 lung cancer cells; assay: FDA drug screening, complete media vs cholesterol-free media with simvastatin (TABLE 2); format: cell-based, human; settings: for Cholesterol-free media + simvastatin (0.04 μM) / Complete Media: NCI-H292 cells
[2] = tested on: NCI-H292 lung cancer cells; assay: FDA drug screening, complete media vs cholesterol-free media without statin (TABLE 1); format: cell-based, human
[3] = FDA drug library screen, cholesterol-free media with simvastatin 0.04 μM
[4] = FDA drug library screen, complete media
[5] = complete media minus cholesterol-free media + simvastatin, >0 enhanced anti-cancer activity, about 0 neutral, <0 antagonist
[6] = NCI-H292 cells, cholesterol-free media without statin
[7] = complete vs cholesterol-free media, greater than 0 enhanced anti-cancer activity, about 0 neutral, below 0 antagonists
[8] = cholesterol-free media with simvastatin 0.04 μM, FDA drug library screen (TABLE 2)
[9] = complete media, FDA drug library screen (TABLE 2)
[10] = complete media minus cholesterol-free media + simvastatin (0.04 μM), […]
[11] = NCI-H292 cells, cholesterol-free media without statin, FDA drug library screen
[12] = NCI-H292 cells, complete media, FDA drug library screen
[13] = complete vs cholesterol-free media, […]
[14] = complete media minus cholesterol-free media + simvastatin, […]
[15] = Complete minus Cholesterol-free, […]
[16] = NCI-H292 cells, FDA drug library screen, cholesterol-free media without statin
[17] = NCI-H292 cells, FDA drug library screen, complete media
[18] = complete media minus cholesterol-free media + simvastatin (0.04 μM), >0 enhanced anti-cancer activity, about 0 neutral, <0 antagonist
[19] = Complete minus Cholesterol-free, >0 enhanced anti-cancer activity, about 0 neutral, <0 antagonist
[20] = Complete minus Cholesterol-free, greater than 0 enhanced anti-cancer activity, about 0 neutral, below 0 antagonist
[21] = drug in cholesterol-free media with simvastatin 0.04 μM
[22] = complete media vs cholesterol-free media + simvastatin (0.04 μM), >0 enhanced anti-cancer activity, about 0 neutral, <0 antagonist
[23] = complete media vs cholesterol-free media + simvastatin (0.04 μM), […]
[24] = FDA library drug in cholesterol-free media with simvastatin 0.04 μM
[25] = FDA library drug in complete media
[26] = Complete minus Cholesterol-free, greater than 0 enhanced anti-cancer activity, about 0 neutral, below 0 antagonists
[27] = NCI-H292 cells in cholesterol-free media without statin
[28] = NCI-H292 cells in complete media

Compound: CN1CC[C@@H](NC(=O)Nc2ccc(C#N)cc2)C[C@@H]1c1nc2ccccc2[nH]1 [Glasdegib]
- Cholesterol-free media + simvastatin (0.04 μM) [1, 3]: 0.7992
- Complete Media [1, 4]: 0.9809
- Difference [1, 5]: 0.18
- Cholesterol-free [2, 6]: 1.398
- Complete ([2]; NCI-H292 cells, complete media): 0.9821
- Difference [2, 7]: −0.42

Compound: Merbromin
- Cholesterol-free media + simvastatin (0.04 μM) [1, 8]: 1.023
- Complete Media [1, 9]: 1.006
- Difference [1, 10]: −0.02
- Cholesterol-free [2, 11]: 1.294
- Complete [2, 12]: 1.544
- Difference [2, 13]: 0.25

Compound: Oxytocin (acetate)
- Cholesterol-free media + simvastatin (0.04 μM) ([1]; cholesterol-free media with simvastatin 0.04 μM, […]): 0.9906
- Difference [1, 14]: 0.04
- Difference [2, 15]: −0.16
- Cholesterol-free [2, 16]: 1.734
- Complete [2, 17]: 1.57

Compound: CCOC(=O)[C@H](CCc1ccccc1)N[C@@H](C)C(=O)N1[C@H](C(=O)O)C[C@@H]2CCC[C@@H]21 [Ramipril]
- Cholesterol-free media + simvastatin (0.04 μM) [1, 8]: 1.055
- Complete Media [1, 9]: 0.9941
- Difference [1, 18]: −0.06
- Difference [2, 19]: −0.24
- Cholesterol-free [2, 6]: 1.132
- Complete ([2]; NCI-H292 cells, complete media): 0.8936

Compound: Aprotinin
- Cholesterol-free media + simvastatin (0.04 μM) [1, 8]: 0.8532
- Complete Media [1, 9]: 0.8102
- Difference [1, 10]: −0.04
- Difference [2, 15]: −0.21
- Cholesterol-free [2, 6]: 0.7012
- Complete ([2]; NCI-H292 cells, complete media): 0.4863

Compound: Naloxegol (oxalate)
- Cholesterol-free media + simvastatin (0.04 μM) [1, 3]: 0.8544
- Difference [1, 14]: 0.21
- Difference [2, 15]: −0.15
- Cholesterol-free [2, 16]: 1.025

Compound: Econazole (nitrate)
- Cholesterol-free media + simvastatin (0.04 μM) [1, 3]: 0.1971
- Difference [1, 5]: 0.88
- Difference [2, 20]: −0.13
- Cholesterol-free [2, 16]: 0.9667
- Complete [2, 17]: 0.8375

Compound: COc1nccnc1NS(=O)(=O)c1ccc(N)cc1 [Sulfalene]
- Cholesterol-free media + simvastatin (0.04 μM) [1, 21]: 1.16
- Complete Media ([1]; drug in complete media): 0.9534
- Difference [1, 22]: −0.21
- Difference [2, 19]: −0.03
- Cholesterol-free [2, 11]: 1.1
- Complete [2, 12]: 1.067

Compound: [NH2][Pt]1([NH2])[O]CC(=O)[O]1 [Nedaplatin]
- Cholesterol-free media + simvastatin (0.04 μM) [1, 21]: 1.191
- Complete Media ([1]; drug in complete media): 0.986
- Difference [1, 23]: −0.20
- Difference [2, 15]: −0.25
- Cholesterol-free [2, 6]: 1.253
- Complete ([2]; NCI-H292 cells, complete media): 1.005

Compound: CC(C)(C)CC(=O)OCC(=O)[C@@]1(O)CC[C@H]2[C@@H]3CCC4=CC(=O)C=C[C@]4(C)[C@H]3[C@@H](O)C[C@@]21C [Prednisolone Tebutate]
- Cholesterol-free media + simvastatin (0.04 μM) [1, 8]: 0.7311
- Complete Media [1, 9]: 0.7398
- Difference [1, 18]: 0.01
- Cholesterol-free [2, 6]: 1.01
- Complete ([2]; NCI-H292 cells, complete media): 0.6634
- Difference [2, 7]: −0.35

Compound: CCCc1nc(C(C)(C)O)c(C(=O)OCc2oc(=O)oc2C)n1Cc1ccc(-c2ccccc2-c2nnn[nH]2)cc1 [Olmesartan medoxomil]
- Cholesterol-free media + simvastatin (0.04 μM) [1, 24]: 2.007
- Complete Media [1, 25]: 1.701
- Difference [1, 22]: −0.31
- Cholesterol-free [2, 11]: 0.613
- Complete [2, 12]: 1.033
- Difference ([2]; complete vs cholesterol-free media, >0 enhanced anti-cancer activity, about 0 neutral, <0 antagonist): 0.42

Compound: CC(C)=CCC/C(C)=C/CC/C(C)=C/C=C/C(C)=C/C(=O)O [Peretinoin]
- Cholesterol-free media + simvastatin (0.04 μM) [1, 24]: 1.273
- Complete Media [1, 25]: 0.971
- Difference [1, 22]: −0.30
- Difference [2, 19]: −0.19
- Cholesterol-free [2, 6]: 1.271
- Complete ([2]; NCI-H292 cells, complete media): 1.084

Compound: C=CCC(C(=O)NC(N)=O)C(C)C (stereo not shown) [Apronal]
- Cholesterol-free media + simvastatin (0.04 μM) [1, 21]: 1.688
- Complete Media ([1]; drug in complete media): 1.479
- Difference [1, 23]: −0.21
- Cholesterol-free [2, 11]: 1.287
- Complete [2, 12]: 1.458
- Difference [2, 13]: 0.17

Compound: O=C1CCc2cc(OCCCCc3nnnn3C3CCCCC3)ccc2N1 [Cilostazol]
- Cholesterol-free media + simvastatin (0.04 μM) [1, 3]: 0.8234
- Complete Media [1, 4]: 0.9809
- Difference [1, 5]: 0.16
- Cholesterol-free [2, 6]: 1.501
- Difference [2, 7]: −0.33

Compound: Brc1c(NC2=NCCN2)ccc2nccnc12 [Brimonidine]
- Cholesterol-free media + simvastatin (0.04 μM) [1, 21]: 0.9016
- Complete Media ([1]; drug in complete media): 0.7279
- Difference [1, 22]: −0.17
- Difference [2, 19]: −0.01
- Cholesterol-free [2, 11]: 0.9724
- Complete [2, 12]: 0.9659

Compound: Alverine (citrate)
- Cholesterol-free media + simvastatin (0.04 μM) [1, 3]: 0.4761
- Complete Media [1, 4]: 1.128
- Difference [1, 5]: 0.65
- Difference [2, 26]: −0.59
- Cholesterol-free [2, 27]: 1.703

Compound: CC12CCC(CC1=O)C2(C)C (stereo not shown) [Camphor]
- Cholesterol-free media + simvastatin (0.04 μM) [1, 3]: 1.13
- Complete Media [1, 4]: 0.9969
- Difference [1, 22]: −0.13
- Difference [2, 26]: −0.48
- Cholesterol-free [2, 27]: 1.372
- Complete [2, 28]: 0.8909

Compound: Trimipramine (maleate)
- Cholesterol-free media + simvastatin (0.04 μM) [1, 3]: 1.033
- Complete Media [1, 4]: 1.193
- Difference [1, 5]: 0.16
- Difference [2, 26]: −0.51
- Cholesterol-free [2, 27]: 1.537
- Complete [2, 28]: 1.022

Compound: O=C(O)CCc1nc(-c2ccccc2)c(-c2ccccc2)o1 [Oxaprozin]
- Cholesterol-free media + simvastatin (0.04 μM) [1, 8]: 0.8941
- Complete Media [1, 9]: 0.904
- Difference [1, 18]: 0.01
- Difference [2, 20]: −0.11
- Cholesterol-free [2, 16]: 1.125
- Complete [2, 17]: 1.011

Compound: CC(C)(Oc1ccc(Cl)cc1)C(=O)O [Clofibric acid]
- Cholesterol-free media + simvastatin (0.04 μM) ([1]; cholesterol-free media with simvastatin 0.04 μM, cell growth value in FDA drug screen): 1.015
- Complete Media ([1]; complete media, cell growth value in FDA drug screen): 1.071
- Difference [1, 5]: 0.06
- Difference [2, 20]: −0.18
- Cholesterol-free [2, 16]: 0.9932
- Complete [2, 17]: 0.8121

Compound: OCc1cc(C(O)CNCCCCCCOCCCCc2ccccc2)ccc1O (stereo not shown) [Salmeterol (xinafoate)]
- Cholesterol-free media + simvastatin (0.04 μM) [1, 3]: 0.9341
- Complete Media [1, 4]: 1.186
- Difference [1, 5]: 0.25
- Cholesterol-free [2, 6]: 1.696
- Complete ([2]; NCI-H292 cells, complete media): 1.368
- Difference [2, 7]: −0.33

Compound: CC1=C(C(=O)Nc2ccccc2)SCCO1 [Carboxin]
- Cholesterol-free media + simvastatin (0.04 μM) [1, 8]: 0.9577
- Complete Media [1, 9]: 0.9272
- Difference [1, 10]: −0.03
- Difference [2, 15]: −0.07
- Cholesterol-free [2, 11]: 1.397
- Complete [2, 12]: 1.326

Compound: CO/N=C1\C[C@]2(C[C@@H]3C[C@@H](C/C=C(\C)C[C@@H](C)/C=C/C=C4\CO[C@@H]5[C@H](O)C(C)=C[C@@H](C(=O)O3)[C@]45O)O2)O[C@H](/C(C)=C/C(C)C)[C@H]1C [Moxidectin]
- Cholesterol-free media + simvastatin (0.04 μM) [1, 21]: 0.8625
- Complete Media ([1]; drug in complete media): 0.6882
- Difference [1, 22]: −0.17
- Difference [2, 19]: −0.21
- Cholesterol-free [2, 6]: 0.4893
- Complete ([2]; NCI-H292 cells, complete media): 0.2816

Compound: COc1cc2c(cc1OC)CC(=O)N(CCCN(C)C[C@H]1Cc3cc(OC)c(OC)cc31)CC2 [Ivabradine (hydrochloride)]
- Cholesterol-free media + simvastatin (0.04 μM) [1, 3]: 1.338
- Complete Media [1, 4]: 1.217
- Difference [1, 22]: −0.12
- Difference [2, 7]: −0.47
